Tested on: Senktide-induced bilateral ovariectomy rats
Test: Tail skin temperature in a Senktide-induced bilateral ovariectomy rat model
Type: in vivo
Conditions: OVX SD rats, oral 30 mg/kg, 30 min before s.c. Senktide, tail skin temperature over 75 min
Text: Pharmacodynamic Study of the Test Compounds on Tail Skin Temperature in a Senktide-Induced Bilateral Ovariectomy Rat Model
To evaluate the effect of the test compounds on tail skin temperature in Senktide-induced bilateral ovariectomy rats.
2.3. Experimental Animals • Ten-Week-old female bilateral ovariectomy SD rats were purchased from Beijing Vital River Laboratory Animal Technology Co., Ltd. The animals were housed in a SPF grade animal facility with 5 SD rats per cage. The cages, bedding, feed and water were disinfected at high temperatures before use. All animals had free access to food and water.
Ten-week-old female SD rats were subjected to bilateral ovariectomy and recovered for two weeks, and then randomly divided into negative control group, model group and drug administration group (8 rats per group), based on body weight. The probe was attached to the dorsal surface of the rat tail with medical tape, 1-2 cm away from the tailhead of the rat.
The vehicle was administered orally to the negative control group and the model group, and different test compounds were administered orally to each drug administration group at a dose of 30 mg/kg and a volume of 10 mL/kg.
Thirty minutes after the oral administration of the vehicle or test compound, the negative control group was injected subcutaneously with normal saline (at a volume of 5 mL/kg); the model group and each drug administration group were injected subcutaneously with 0.2 mg/mL of Senktide (at a volume of 5 mL/kg) to induce the hot flashes-like symptom.
The change in tail skin temperature (ΔTST) at each time point relative to time point 0 was calculated, the ΔTST-time curve of the change in tail skin temperature was plotted, and the area under curve (AUCΔTST) was calculated. ΔTST=TSTn−TST0, TST0 is the tail skin temperature at 0 minute before the subcutaneous injection of normal saline or Senktide; TSTn is the tail skin temperature at the n minute after the subcutaneous injection.
AUCΔTST=Σ(ΔTSTn+ΔTSTn+5)*5/2

Molecule [2H]c1cc(C(=O)N2CCn3c(-c4nc(Cl)ns4)nnc3[C@H]2C)ccc1F [Example 56, (R)-(3-(3-Chloro-1,2,4-thiadiazol-5-yl)-8-methyl-5,6-dihydro-[1,2,4]triazolo[4,3-a]pyrazin-7(8H)-yl)(4-fluorophenyl-3-d)methanone] has an AUCΔTST of 53.8 ± 19.8 °C · min.
